Experimental data reported in article PMC3220277 (2011).
Read-outs that look alike come from different tables or passages of the source.

Columns and labels:
Format in all cases: binding
C3R/C86S S100A4 [1] = target: T1, C3R/C86S S100A4 (Homo sapiens, UniProt P26447, C3R/C86S); experiment: competitive fluorescence anisotropy against FITC-MIIA
S100A4 [2] = target: T2, S100A4 (Homo sapiens, UniProt P26447); experiment: LC-ESI MS of covalent adducts
S100A4 [3] = target: T2, S100A4; experiment: competitive fluorescence anisotropy against FITC-MIIA
C3R/C86S S100A4 [4] = target: T1, C3R/C86S S100A4; experiment: as above; remark: listed apart in the source

T1 sequence (P26447 2-101 C3R/C86S, one chain of several): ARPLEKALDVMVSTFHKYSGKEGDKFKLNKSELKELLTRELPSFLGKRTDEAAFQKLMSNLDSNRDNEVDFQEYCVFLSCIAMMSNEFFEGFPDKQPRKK
T2 sequence (P26447 2-101, one chain of several): as the sequence (P26447 2-101 C3R/C86S, one chain of several) above, with R2C, S85C counted along it

IC50 (C3R/C86S S100A4 [1]) [µM]	IC50 (S100A4 [2]) [nM]	IC50 (S100A4 [3]) [nM]	IC50 (C3R/C86S S100A4 [4]) [µM]	SMILES
5.7 ± 0.5	1800 ± 600			O=C1C(SCCO)=C(SCCO)C(=O)c2ccccc21 [NSC 95397, 2,3-bis[2-hydroxyethylsulfanyl]-1,4-naphthoquinone]
		2700 ± 700	5.3 ± 0.6	CC1=C(SCCO)C(=O)c2ccccc2C1=O [NSC 672121, 2-(2-hydroxyethylsulfanyl)-3-methylnaphthalene-1,4-dione]
